Like-named read-outs stand apart in the source and are kept apart here.
Experiments:
[1] = tested on: calmodulin-dependent cyclic nucleotide phosphodiesterase (PDE1); parameters: method as in PMID 15059913; conditions: cited from earlier work
[2] = tested on: mitochondrial respiration; parameters: method as in PMID 7777565; conditions: in D. discoideum; read-out: IC50 for inhibition (uncoupling) of mitochondrial respiration; cited from earlier work
HeLa cells = assay: Cell growth assay (Alamar blue), HeLa; assay type: cell-based, human
Method: HeLa, LM8, and 3T3-L1 cells were cultured for 3 days at 2.5–5×10^3 cells/well in 12-well plates with each well filled with 1 ml of DMEM-FBS (for HeLa and 3T3-L1) or MEM-α-FBS (for LM8) together with drugs at various concentrations. Then, the incubation media were discarded and the cells were washed with 1 ml of PBS(–) (20 mM phosphate buffered saline, pH 7.4) and incubated with 1 ml of fresh DMEM-FBS (HeLa and 3T3-L1) or MEM-α-FBS (LM8) containing 5% (v/v) of Alamar blue (a cell number indicator; Wako Pure Chemical Industries, Osaka, Japan) until the color changed. […] Relative cell numbers were determined for each concentration for each drug and the IC50 was determined from the dose-response curves.

[3] = tested on: mitochondrial malate dehydrogenase (mMDH); parameters: method as in PMID 20173310; conditions: cited from earlier work
[4] = tested on: cyclin D1 and cyclin D3 in HeLa cells; assay: Western blotting of cyclin D expression; assay type: cell-based, human; conditions: 20 h, DIF-3 20 µM, Bu-DIF-3 5–7.5 µM, BODIPY-DIF-3 20 µM, CCCP 10 µM, azide 0.01%
Method: HeLa cells were incubated for 20 h with 1 ml of DMEM-FBS containing the indicated additives in 12-well plates (2–4×10^5 cells/well), washed twice with PBS(–), harvested by adding 100–200 µl of an SDS-sample buffer solution (in proportion to cell density: relative cell number), sonicated (heated), and used for SDS-PAGE. Western blot transfer and immunoblotting were performed as described previously, by using a primary antibody for cyclin D1, cyclin D2, cyclin D3, or GAPDH, and a second antibody, an alkaline phosphatase-conjugated anti-mouse or anti-rabbit IgG antibody. […] Visualized protein bands were then digitized and quantified by using Adobe Photoshop CS4 (version 11.0) (Adobe, San Jose, CA, USA) and ImageJ Software (version 1.4) (http://rsb.info.nih.gov/ij/).

LM8 cells = assay: Cell growth assay (Alamar blue), LM8; assay type: cell-based, mouse; conditions: Mus musculus, 72 h; LM8 cells, 3 days, Alamar blue
Method: (§1) HeLa, LM8, and 3T3-L1 cells were cultured for 3 days at 2.5–5×10^3 cells/well in 12-well plates with each well filled with 1 ml of DMEM-FBS (for HeLa and 3T3-L1) or MEM-α-FBS (for LM8) together with drugs at various concentrations. Then, the incubation media were discarded and the cells were washed with 1 ml of PBS(–) (20 mM phosphate buffered saline, pH 7.4) and incubated with 1 ml of fresh DMEM-FBS (HeLa and 3T3-L1) or MEM-α-FBS (LM8) containing 5% (v/v) of Alamar blue (a cell number indicator; Wako Pure Chemical Industries, Osaka, Japan) until the color changed. The relative cell number was assessed by measuring absorbance at 570 nm (reference at 595 nm) as described previously, [14]; DIF-related compounds and BODIPY-conjugated compounds hardly disturbed the cell number assessment with Alamar blue (data not shown), probably because the additive compounds were washed out when cell number was assessed. For determination of the 50% inhibitory concentration (IC50) of each drug, the cells were cultured for 3 days in the presence of each drug at various concentrations. Relative cell numbers were determined for each concentration for each drug and the IC50 was determined from the dose-response curves.
(§2) Supplementary file pone.0072118.s001.tif: Figure S1 Effects of BODIPY-DIF-3 and CCCP on cell growth, and cellular localization of BODIPY-DIF-3 in LM8 cells. (A) Cells were incubated for 4 days with 5–20 µM of BODIPY-DIF-3 (closed circles) or 2–10 µM of CCCP (closed triangles), and relative cell number was assessed by the use of Alamar blue. Data are the mean values and SD (bars) of three independent experiments. (B) Cells were incubated for 0.5 h or 3 days with 20 µM of BODIPY-DIF-3, washed free of the additive, and observed microscopically. (C) Cells were incubated for 0.5 h with BODIPY-DIF-3 (20 µM), Hoechst (0.1 µg/ml), and MitoTracker (0.1 µM), washed free of the additives, and observed by using a high-magnification fluorescence microscope. (D) Cells were incubated for 3 days with BODIPY-DIF-3 (20 µM) and then for 0.5 h with Hoechst (0.1 µg/ml) and MitoTracker (0.1 µM). Cells were washed free of the additives and observed by using a high-magnification fluorescence microscope. (TIF) Click here for additional data file.

mouse liver mitochondria = assay: Mitochondrial oxygen consumption (Clark-type oxygen electrode); assay type: biochemical
Method: Mitochondria were isolated from mouse liver (ICR; 7–10 week-old females) by differential centrifugation as described previously. Cells were homogenized in a Potter glass homogenizer with H-Buffer (250 mM sucrose, 10 mM Tris-HCl pH 7.4), and centrifuged at 800g for 1 min at 4°C. The supernatant was centrifuged at 6,000g for 5 min, and the resulting pellet, the crude mitochondrial fraction, was suspended in H-Buffer. The suspension was layered over a discontinuous sucrose gradient consisting of 1.1 M and 1.6 M sucrose in a Tris buffer (10 mM Tris-HCl pH 7.4), and centrifuged for 3 h at 90,000g at 4°C. The interface was collected in Tris buffer and centrifuged at 6,000g for 5 min. The resulting pellets were suspended in Tris buffer and used for experiments after confirming the presence of the mitochondrial marker cytochrome c.
Mitochondrial oxygen consumption was determined using a Clark-type oxygen electrode (Strathkelvin Instruments Ltd., North Lanarkshire, Scotland) as described, [39]. The mitochondria-enriched fraction was incubated at 30°C in oxygen measurement buffer (225 mM mannitol, 75 mM sucrose, 10 mM KCl, 0.1 mM EDTA, 3 mM phosphate, 5 mM succinate, 5 mM glutamate, and 20 mM Tris-HCl pH 7.4) in the presence or absence of various concentrations of the DIF-like molecules or CCCP. After recording ‘State 4’ of the respiration reaction, an aliquot of ADP was added to a final concentration of 200 µM to induce ‘State 3’. The PC100 (100% promoting concentration) of each additive was defined as the drug concentration that doubled the basal rate of oxygen consumption during State 3, which was calculated from the dose-response plot for the rate of oxygen consumption (Figure 8).

3T3-L1 cells = assay: Cell growth assay (Alamar blue), 3T3-L1; assay type: cell-based, mouse; conditions: Mus musculus, 72 h; 3T3-L1 cells, 3 days, Alamar blue
Method: as §1
as §2, with “pone.0072118.s002.tif:” for “pone.0072118.s001.tif:”, “S2” for “S1”, “3T3-L1” for “LM8”

CCCCCC(=O)c1c(O)c(Cl)c(OC)c(Cl)c1O [DIF-1, 1-(3,5-dichloro-2,6-dihydroxy-4-methoxyphenyl)hexan-1-one, reference compound]
Inhibition of PDE1 [1]: direct inhibitors of PDE1
IC50 [2]: 0.54 µM
Effect on cell growth (relative cell number) (HeLa cells; HeLa, 20 µM, 3 days): significantly suppressed
Binding to and inhibition of mMDH [3]: binds to mitochondrial malate dehydrogenase (mMDH) and inhibits its activity

[N-]=[N+]=[N-].[Na+] [azide, NaN3, reference compound]
Expression of cyclin D1 [4]: suppressed
Expression of cyclin D3 [4]: but not of cyclin D3
Effect on cell growth (relative cell number) (HeLa cells): suppressed cell growth

CCCCNC(=O)CCC1=[N+]2C(=Cc3c(C)cc(C)n3[B-]2(F)F)C=C1 [Bu-BODIPY]
IC50 (LM8 cells): > 20 µM
Effect on cell growth (relative cell number) (HeLa cells; HeLa, 5–20 µM (Bu-BODIPY up to 20 µM), 3 days): hardly affected
IC50 (HeLa cells; Homo sapiens, 72 h, HeLa cells, 3 days, Alamar blue): > 20 µM
Effect on basal rate of O2 consumption (mouse liver mitochondria; 1–100 µM): had no effect
PC100 (µM) for Mito. O2 consumption (mouse liver mitochondria; 100% promoting concentration: doubles the basal rate of oxygen consumption, 30°C): >100 µM
IC50 (3T3-L1 cells): > 20 µM

From publication PMC3744471, “Mitochondria Are the Target Organelle of Differentiation-Inducing Factor-3, an Anti-Tumor Agent Isolated from Dictyostelium Discoideum” (PLoS ONE, 2013)
